Reference: patent US20150197492A1, “NOVEL INDENO[1,2-c]QUINOLIN-11-ONE DERIVATIVES, PREPARATION METHOD AND APPLICATION THEREOF” (National Defense Medical Center, priority 2014, published 2015)

Experiments:
Type in all cases: cell-based
RXF 393 = test: cells; details: RXF 393 (Renal Cancer), 10 μM, 48 hours
TK-10 = test: cells; details: TK-10 (Renal Cancer), 10 μM, 48 hours
KM12 = test: cells; details: KM12 (Colon Cancer), 10 μM, 48 hours
HS 578T = test: cells; details: HS 578T (Breast Cancer), 10 μM, 48 hours
SK-MEL-28 = test: cells; details: SK-MEL-28 (Melanoma), 10 μM, 48 hours
A549/ATCC = test: cells; details: A549/ATCC (Non-Small Cell Lung Cancer), 10 μM, 48 hours
SK-MEL-2 = test: cells; details: SK-MEL-2 (Melanoma), 10 μM, 48 hours
MDA-MB-435 = test: cells; details: MDA-MB-435 (Melanoma), 10 μM, 48 hours
OVCAR-5 = test: cells; details: OVCAR-5 (Ovarian Cancer), 10 μM, 48 hours
786-0 = test: cells; details: 786-0 (Renal Cancer), 10 μM, 48 hours
BT-549 = test: cells; details: BT-549 (Breast Cancer), 10 μM, 48 hours
NCI-H522 = test: cells; details: NCI-H522 (Non-Small Cell Lung Cancer), 10 μM, 48 hours
UO-31 = test: cells; details: UO-31 (Renal Cancer), 10 μM, 48 hours
CAKI-1 = test: cells; details: CAKI-1 (Renal Cancer), 10 μM, 48 hours
SF-268 = test: cells; details: SF-268 (CNS Cancer), 10 μM, 48 hours
UACC-257 = test: cells; details: UACC-257 (Melanoma), 10 μM, 48 hours
HOP-62 = test: cells; details: HOP-62 (Non-Small Cell Lung Cancer), 10 μM, 48 hours
EKVX = test: NCI cancer cell cytotoxicity assay, Non-Small Cell Lung Cancer EKVX; details: 10 μM, 48 hours
NCI-H23 = test: cells; details: NCI-H23 (Non-Small Cell Lung Cancer), 10 μM, 48 hours
OVCAR-3 = test: cells; details: OVCAR-3 (Ovarian Cancer), 10 μM, 48 hours
MOLT-4 = test: cells; details: MOLT-4 (Leukemia), 10 μM, 48 hours
SK-MEL-5 = test: cells; details: SK-MEL-5 (Melanoma), 10 μM, 48 hours
RPMI-8226 = test: cells; details: RPMI-8226 (Leukemia), 10 μM, 48 hours
HCC-2998 = test: cells; details: HCC-2998 (Colon Cancer), 10 μM, 48 hours
CCRF-CEM = test: cells; details: CCRF-CEM (Leukemia), 10 μM, 48 hours
NCI/ADR-RES = test: cells; details: NCI/ADR-RES (Ovarian Cancer), 10 μM, 48 hours
HCT-15 = test: cells; details: HCT-15 (Colon Cancer), 10 μM, 48 hours
IGROV1 = test: cells; details: IGROV1 (Ovarian Cancer), 10 μM, 48 hours
HL-60 (TB) = test: cells; details: HL-60 (TB) (Leukemia), 10 μM, 48 hours
HCT-116 = test: cells; details: HCT-116 (Colon Cancer), 10 μM, 48 hours
HT29 = test: cells; details: HT29 (Colon Cancer), 10 μM, 48 hours
HOP-92 = test: cells; details: HOP-92 (Non-Small Cell Lung Cancer), 10 μM, 48 hours

Row | Compound | growth percentage (RXF 393) [%] | growth percentage (TK-10) [%] | growth percentage (KM12) [%] | growth percentage (HS 578T) [%] | growth percentage (SK-MEL-28) [%] | growth percentage (A549/ATCC) [%] | growth percentage (SK-MEL-2) [%] | growth percentage (MDA-MB-435) [%] | growth percentage (OVCAR-5) [%] | growth percentage (786-0) [%] | growth percentage (BT-549) [%] | growth percentage (NCI-H522) [%] | growth percentage (UO-31) [%] | growth percentage (CAKI-1) [%] | growth percentage (SF-268) [%] | growth percentage (UACC-257) [%] | growth percentage (HOP-62) [%] | growth percentage (EKVX) [%] | growth percentage (NCI-H23) [%] | growth percentage (OVCAR-3) [%] | further results
1 | O=C1c2cc(Cl)ccc2-c2c(SCCO)nc3ccccc3c21 [SJ-25, 6-(2-Hydroxyethylthio)-9-chloro-11H-indeno[1,2-c]quinolin-11-one] | 79.39 | 99.82 | 84.62 | 58.28 | 86.90 | 76.42 | 95.85 | 95.15 | 112.54 | 100.58 | 92.88 | 68.89 | 56.23 | 41.86 | 96.53 | 106.91 | 91.46 | 30.15 | 66.22 | 89.42 | growth percentage (MOLT-4): 59.49%; growth percentage (SK-MEL-5): 68.56%; growth percentage (RPMI-8226): 62.28%; growth percentage (HCC-2998): 96.27%; growth percentage (CCRF-CEM): 71.56%; growth percentage (NCI/ADR-RES): 73.58%; growth percentage (HCT-15): 80.10%; growth percentage (IGROV1): 69.73%; growth percentage (HL-60 (TB)): 91.75%; growth percentage (HCT-116): 77.94%; growth percentage (HT29): 84.03%
2 | O=C1c2cc(Cl)ccc2-c2c(O)nc3ccccc3c21 [SJ-26, 6-Hydroxy-9-chloro-11H-indeno[1,2-c]quinolin-11-one] | 99.93 | 126.63 | 102.73 | 105.98 | 100.02 | 104.88 | 117.12 | 100.35 | 126.77 | 114.55 | 120.08 | 92.22 | 70.50 | 71.62 | 106.64 | 106.31 | 91.26 | 72.14 | 81.56 | 117.80 | growth percentage (MOLT-4): 95.10%; growth percentage (SK-MEL-5): 84.87%; growth percentage (RPMI-8226): 90.60%; growth percentage (HCC-2998): 102.24%; growth percentage (CCRF-CEM): 105.78%; growth percentage (NCI/ADR-RES): 97.00%; growth percentage (HCT-15): 108.54%; growth percentage (IGROV1): 91.28%; growth percentage (HL-60 (TB)): 102.31%; growth percentage (HCT-116): 103.43%; growth percentage (HT29): 102.38%
3 | O=C1c2cc(Cl)ccc2-c2c(Cl)nc3ccccc3c21 [TC-XCl-1, 6,9-Dichloro-11H-indeno[1,2-c]quinolin-11-one] | 112.80 | 138.45 | 111.92 | 91.01 | 90.08 | 108.98 | 117.11 | 100.46 | 137.00 | 112.40 | 119.62 | 89.37 | 80.62 | 75.67 | 117.27 | 127.99 | 94.89 | 79.27 | 79.30 | 119.93 | growth percentage (MOLT-4): 70.83%; growth percentage (SK-MEL-5): 86.30%; growth percentage (RPMI-8226): 92.83%; growth percentage (HCC-2998): 98.52%; growth percentage (CCRF-CEM): 64.86%; growth percentage (NCI/ADR-RES): 96.78%; growth percentage (HCT-15): 114.88%; growth percentage (IGROV1): 92.82%; growth percentage (HOP-92): 71.94%; growth percentage (HL-60 (TB)): 102.00%; growth percentage (HCT-116): 105.87%; growth percentage (HT29): 104.27%
